In ChEMBL document CHEMBL1201862, “PubChem BioAssay data set” (2004):
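Exposure lasted 48 hours, with cells grown in 96-well plates and compounds tested at five concentrations. GI50 marks 50% less growth.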 Calls of active or inactive are those of the source. Rule as the data show it: active = GI50 up to about 1.1 µM and inactive = higher.

Tests used:
Test in all cases: NCI anticancer screen, dose series, 48 h
[1] = tested on: A498
[2] = tested on: CAKI-1
[3] = tested on: COLO 205
[4] = tested on: HOP-92
[5] = tested on: LOX IMVI
[6] = tested on: MDA-MB-231
[7] = tested on: MDA-N
[8] = tested on: MOLT-4
[9] = tested on: NCI-H23
[10] = tested on: NCI-H460
[11] = tested on: OVCAR-8
[12] = tested on: PC-3
[13] = tested on: SF-268
[14] = tested on: SK-MEL-2
[15] = tested on: SK-OV-3
[16] = tested on: SNB-19
[17] = tested on: T47D
[18] = tested on: UACC-257
[19] = tested on: BT-549
[20] = tested on: NCI-H522

Measured: GI50

Cc1ccc(-c2cc(-c3c(C)nn(C)c(=O)c3N)n[nH]2)cc1
inactive: [1] 28.5 µM | [2] > 100 µM | [3] > 100 µM | [4] > 100 µM | [5] > 100 µM | [6] > 100 µM | [7] > 100 µM | [8] > 100 µM | [9] > 100 µM | [10] > 100 µM | [11] > 100 µM | [12] > 100 µM | [13] > 100 µM | [14] > 100 µM | [15] > 100 µM | [16] > 100 µM | [17] 53.5 µM | [18] > 100 µM

CCNCCC1(CC)C(=O)NC(=O)NC1=O
inactive: [1] > 100 µM | [19] > 100 µM | [2] > 100 µM | [3] > 100 µM | [4] > 100 µM | [5] > 100 µM | [6] > 100 µM | [8] > 100 µM | [9] > 100 µM | [10] > 100 µM | [20] > 100 µM | [11] > 100 µM | [12] > 100 µM | [13] > 100 µM | [14] > 100 µM | [15] > 100 µM | [16] > 100 µM | [17] > 100 µM | [18] > 100 µM

O=C(CO)C1CC2C=CC1C2 (stereo unspecified)
inactive: [1] > 100 µM | [2] > 100 µM | [3] > 100 µM | [4] > 100 µM | [5] > 100 µM | [8] > 100 µM | [9] > 100 µM | [10] > 100 µM | [20] > 100 µM | [11] > 100 µM | [13] > 100 µM | [14] > 100 µM | [15] > 100 µM | [16] > 100 µM | [18] > 100 µM

N#Cc1cc2c(cc1Cl)Sc1nnc(Nc3ccccc3)n1S2(=O)=O
inactive: [1] 8.32 µM | [19] 2.47 µM | [2] 1.72 µM | [3] 2.18 µM | [5] 1.73 µM | [6] 1.91 µM | [8] 2.02 µM | [9] 1.62 µM | [10] 2.71 µM | [20] 1.89 µM | [11] 2 µM | [12] 1.74 µM | [13] 2.82 µM | [14] 2.55 µM | [15] 5.04 µM | [16] 2.3 µM | [17] 2.29 µM | [18] 1.79 µM
active: [4] 0.798 µM

O=C1NC2c3c(I)sc(I)c3/C(=N\O)C2O1 (stereo unspecified)
inactive: [1] 33.6 µM | [2] 32.7 µM | [3] 20.8 µM | [4] 19.2 µM | [5] 29.4 µM | [6] 24 µM | [7] 33.6 µM | [8] 28.2 µM | [9] 23.2 µM | [10] 31.5 µM | [11] 18.4 µM | [12] 39.2 µM | [13] 24.3 µM | [14] 63.7 µM | [15] 34.5 µM | [16] 21.7 µM | [17] 35.2 µM | [18] 58.3 µM

CCCCCCCCCc1cccc(N2C(N)=NC(N)=NC2(C)C)c1
active: [19] 1 µM | [2] 0.293 µM | [3] 0.0209 µM | [5] < 0.01 µM | [6] 0.302 µM | [8] < 0.0273 µM | [9] < 0.01 µM | [10] < 0.01 µM | [20] 0.0451 µM | [11] < 0.01 µM | [12] < 0.0184 µM | [13] < 0.023 µM | [14] 0.993 µM | [17] 0.528 µM | [18] 0.0611 µM
inactive: [1] 1.24 µM | [4] 1.58 µM | [15] 1.62 µM

Cc1cc([C@H](C#N)c2nc3ccccc3[nH]2)nc(Cl)n1
inactive: [1] 41.8 µM | [19] 53.6 µM | [2] 98.4 µM | [3] 42.1 µM | [4] 20.1 µM | [5] 38.8 µM | [6] 59.3 µM | [8] > 100 µM | [9] 30.1 µM | [10] 24.5 µM | [11] 30.4 µM | [12] 30.9 µM | [13] > 100 µM | [14] 26.5 µM | [15] > 100 µM | [16] 71.6 µM | [17] 21.3 µM | [18] 26.5 µM

c1ccc2c(c1)SCCC2NC1=NCCO1 (stereo unspecified)
inactive: [1] > 100 µM | [2] > 100 µM | [3] > 100 µM | [5] > 100 µM | [6] > 100 µM | [7] > 100 µM | [8] > 100 µM | [9] > 100 µM | [10] > 100 µM | [20] > 100 µM | [11] > 100 µM | [12] > 100 µM | [13] > 100 µM | [14] > 100 µM | [15] > 100 µM | [16] > 100 µM | [17] > 100 µM

CCN(CC)/C(=C\Cl)Nc1ccccn1.[O-][Cl+3]([O-])([O-])O
inactive: [1] > 100 µM | [2] > 100 µM | [3] > 100 µM | [4] > 100 µM | [5] > 100 µM | [8] > 100 µM | [9] > 100 µM | [10] > 100 µM | [20] > 100 µM | [11] > 100 µM | [13] > 100 µM | [14] > 100 µM | [15] > 100 µM | [16] > 100 µM | [18] > 100 µM

COc1cc(C2c3cc(O)c(OC)cc3C3OCC2C3CO)ccc1O (stereo unspecified)
inactive: [1] > 100 µM | [19] > 100 µM | [2] > 100 µM | [3] > 100 µM | [4] 7.6 µM | [5] > 100 µM | [6] > 100 µM | [8] > 100 µM | [9] > 100 µM | [10] > 100 µM | [20] > 100 µM | [12] > 100 µM | [13] > 100 µM | [14] > 100 µM | [15] > 100 µM | [16] > 100 µM | [17] > 100 µM

CC(=O)OCc1cc2c(s1)C(=O)c1sccc1C2=O
inactive: [1] 1.82 µM | [2] 1.84 µM | [3] 1.65 µM | [15] 1.72 µM
active: [4] 0.528 µM | [5] < 0.0182 µM | [6] 0.237 µM | [8] 0.356 µM | [9] 0.018 µM | [10] 0.175 µM | [20] 0.147 µM | [11] 0.183 µM | [12] 0.194 µM | [13] 0.154 µM | [14] 0.0935 µM | [16] 0.177 µM | [17] 0.309 µM | [18] 0.0986 µM

Cc1oc2nc(N(C)C)nc(NN)c2c1C
inactive: [1] > 100 µM | [19] > 100 µM | [2] > 100 µM | [3] > 100 µM | [4] > 100 µM | [6] > 100 µM | [8] > 100 µM | [9] > 100 µM | [10] > 100 µM | [20] > 100 µM | [11] > 100 µM | [12] > 100 µM | [13] > 100 µM | [14] > 100 µM | [16] > 100 µM | [17] > 100 µM | [18] > 100 µM

CNCCCn1c2ccccc2c2c3c(c(-c4ccsc4)cc21)C(=O)NC3=O
inactive: [19] 2.1 µM | [3] 1.39 µM | [5] 1.33 µM | [6] 1.57 µM | [8] 1.54 µM | [10] 1.35 µM | [20] 1.66 µM | [13] 1.51 µM | [15] 1.19 µM | [16] 1.6 µM | [17] 2.09 µM | [18] 1.58 µM
active: [1] < 0.0104 µM | [2] 0.519 µM | [9] 0.0822 µM | [11] 0.281 µM | [12] 0.178 µM | [14] 0.0181 µM

COc1cc2c(c(OC)c1OC)-c1ccc(SC)c(=O)cc1C(CC(=O)Oc1ccc(F)cc1)C2 (stereo unspecified)
active: [1] 0.0374 µM | [2] 0.0676 µM | [3] 0.133 µM | [5] 0.236 µM | [8] 0.436 µM | [9] 0.215 µM | [10] 0.253 µM | [20] 0.116 µM | [11] 0.333 µM | [13] 0.622 µM | [14] 0.23 µM | [15] 0.028 µM | [16] 0.255 µM
inactive: [4] 1.21 µM | [18] 38.9 µM

CCOC1=C2C(=O)OC(=O)C2C2CCCCC2=C1 (stereo unspecified)
inactive: [1] > 10 µM | [2] > 100 µM | [3] > 100 µM | [4] > 100 µM | [5] > 100 µM | [8] > 100 µM | [9] > 100 µM | [10] > 100 µM | [20] > 100 µM | [11] > 100 µM | [13] > 100 µM | [14] > 100 µM | [15] > 100 µM | [16] > 100 µM | [18] > 100 µM

Cc1c(O)c(OC2OC(CO)C(O)C(O)C2O)cc2c1CC[C@@H]1C2(C)C(=O)C[C@]2(C)[C@@H]([C@@](C)(O)C3CCC(C)(C)O3)[C@H](O)C[C@@]12C (stereo partly specified)
inactive: [1] > 100 µM | [19] > 100 µM | [2] > 100 µM | [3] > 100 µM | [4] > 100 µM | [5] > 100 µM | [6] > 100 µM | [8] > 100 µM | [9] > 100 µM | [10] > 100 µM | [20] > 100 µM | [11] > 100 µM | [12] > 100 µM | [13] > 100 µM | [14] > 100 µM | [15] > 100 µM | [16] > 100 µM | [17] > 100 µM | [18] > 100 µM
